Measurements published in ChEMBL document CHEMBL1134259, “Antitumor agents. Part 204: synthesis and biological evaluation of substituted 2-aryl quinazolinones” (Bioorg Med Chem Lett, 2001).
Converted amounts (≈) assume the structure as drawn. The source made the active and inactive calls. No cut-off for these calls is given here.

Experiments:
KB [1] = assay: In vitro effective concentration required to reduce the number of Human epidermoid carcinoma cells (KB) of nasopharynx after 3-day incubation; type: functional; settings: 72 h, read-out: ED50 (the source's name)
H9 [2] = assay: Concentration required to inhibit uninfected H9 cell growth when tested for anti-HIV activity; type: functional, cell-based; settings: Homo sapiens
[3] = Therapeutic index (IC50/EC50) was determined.; settings: read-out: Therapeutic index
HCT-8 [4] = assay: In vitro effective concentration required to reduce the number of human ileocecal carcinoma (HCT-8) after 3-day incubation; type: functional; settings: for EC50: HCT-8, 72 h, read-out: ED50 (the source's name)
SK-MEL-2 [5] = assay: In vitro effective concentration required to reduce the number of human melanoma cancer (SKMEL-2) after 3-day incubation; type: functional; settings: SK-MEL-2, 72 h, read-out: ED50 (the source's name)
MCF7 [6] = assay: In vitro effective concentration required to reduce the number of human breast cancer (MCF-7) after 3-day incubation; type: functional; settings: for EC50: 72 h, read-out: ED50 (the source's name)
KB [7] = assay: In vitro effective concentration required to reduce the number of P-glycoprotein-expressing human epidermoid carcinoma cells (KB-VIN) of nasopharynx after 3-day incubation; type: functional; settings: 72 h, read-out: ED50 (the source's name)
A549 [8] = assay: In vitro effective concentration required to reduce the number of human lung carcinoma (A-549) after 3-day incubation; type: functional; settings: A549, 72 h, read-out: ED50 (the source's name)
1A9 [9] = assay: In vitro effective concentration required to reduce the number of human ovarian cancer (1A9) after 3-day incubation; type: functional; settings: for EC50: 1A9, 72 h, read-out: ED50 (the source's name)
Tubulin = assay: Inhibitory concentration required against tubulin polymerization in the antimicrotubule activity test; type: functional
H9 [10] = assay: Concentration required to inhibit viral replication in acutely infected H9 lymphocytes when tested for anti-HIV activity; type: functional, cell-based; settings: Homo sapiens
[11] = Therapeutic index (IC50/EC50) was determined; Did not dissolve
Tumor cell line = assay: Tested for inhibitory activity against growth of about half of NCI's drug screen tumor cell lines at subnanomolar concentrations; type: functional; settings: read-out: Log TGI (converted)
SK-MEL-2 [12] = assay: In vitro effective concentration required to reduce the number of human melanoma cancer cells (SKMEL-2) after 3-day incubation; type: functional; settings: SK-MEL-2, 72 h, read-out: ED50 (the source's name)
HCT-8 [13] = assay: In vitro effective concentration required to reduce the number of human ileocecal carcinoma cells(HCT-8) after 3-day incubation; type: functional; settings: HCT-8, 72 h, read-out: ED50 (the source's name)
1A9 [14] = assay: In vitro effective concentration required to reduce the number of human ovarian cancer cells (1A9) after 3-day incubation; type: functional; settings: 1A9, 72 h, read-out: ED50 (the source's name)
MCF7 [15] = assay: In vitro effective concentration required to reduce the number of human breast cancer cells (MCF-7) after 3-day incubation; type: functional; settings: MCF7, 72 h, read-out: ED50 (the source's name)
A549 [16] = assay: In vitro effective concentration required to reduce the number of human lung carcinoma cells (A-549) after 3-day incubation; type: functional; settings: A549, 72 h, read-out: ED50 (the source's name)

| Structure (SMILES) | EC50 (KB [1]) [µg/mL] | IC50 (H9 [2]) [µM] | selectivity ratio [3] | EC50 (SK-MEL-2 [5]) [µg/mL] | EC50 (MCF7 [6]) [µg/mL] | EC50 (KB [7]) [µg/mL] | EC50 (A549 [8]) [µg/mL] | EC50 (1A9 [9]) [µg/mL] | IC50 (Tubulin) [µM] | EC50 (H9 [10]) [µM] | EC50 (HCT-8 [4]) [µg/mL] | Therapeutic index [11] | other results |
| --- | --- | --- | --- | --- | --- | --- | --- | --- | --- | --- | --- | --- | --- |
| Oc1nc(-c2cccc(F)c2)nc2ccccc12 | > 20 | 30.7 | 3.22 | > 20 | > 20 | 8.5 (≈ 35.4 µM) | 9.8 (≈ 40.8 µM) | > 20 | > 40 | 9.53 | – | – | ED50 (HCT-8 [4]): inactive |
| COc1cccc(-c2nc(O)c3ccccc3n2)c1 | – | – | – | > 20 | > 20 | > 20 | > 20 | – | 8.6 | – | > 20 | – | ED50 (1A9 [9]): inactive |
| COc1cc2nc(-c3ccccc3F)nc(O)c2cc1OC | < 5 | 100 | 9.17 | < 5 | 13.1 (≈ 43.6 µM) | < 5 | < 5 | > 20 | > 40 | 10.9 | 17 (≈ 56.6 µM) | – | – |
| COc1cc2nc(-c3ccc(F)cc3)nc(O)c2cc1OC | > 20 | – | – | > 20 | 19.8 (≈ 65.9 µM) | > 20 | > 20 | 16 (≈ 53.3 µM) | > 40 | – | > 20 | Did not dissolve | – |
| COc1cc2nc(-c3ccc4ccccc4c3)nc(O)c2cc1OC | 7.3 (≈ 22 µM) | 100 | 13.2 | 8.5 (≈ 25.6 µM) | 6.6 (≈ 19.9 µM) | 1.6 (≈ 4.81 µM) | 8 (≈ 24.1 µM) | 7.8 (≈ 23.5 µM) | > 40 | 7.59 | > 10 | – | – |
| COc1cccc(-c2cc(O)c3cc(N4CCCC4)ccc3n2)c1 | – | – | – | – | – | – | – | – | – | – | – | – | TGI (Tumor cell line): < 0.001 µM |
| COc1cccc(-c2nc(O)c3cc(OC)c(OC)cc3n2)c1 | > 20 | – | – | – | 14.5 (≈ 46.4 µM) | 19 (≈ 60.8 µM) | > 20 | 17.5 (≈ 56 µM) | 6.5 | – | > 20 | – | – |
| COc1cccc(-c2nc(O)c3cc(OC)ccc3n2)c1 | 1.98 (≈ 7.01 µM) | – | – | > 40 | 37.5 (≈ 133 µM) | – | 28.1 (≈ 99.5 µM) | 4.7 (≈ 16.6 µM) | 4.9 | – | > 40 | – | – |
| Oc1nc(-c2ccc(F)cc2)nc2ccccc12 | > 20 | 38.8 | 4.22 | > 20 | > 20 | 6.5 (≈ 27.1 µM) | 7.5 (≈ 31.2 µM) | > 20 | > 40 | 9.18 | – | – | ED50 (HCT-8 [4]): inactive |
| Oc1nc(-c2ccc3ccccc3c2)nc2ccccc12 | 12.5 (≈ 45.9 µM) | – | – | 13 (≈ 47.7 µM) | 10.3 (≈ 37.8 µM) | 6 (≈ 22 µM) | 14.4 (≈ 52.9 µM) | 8 (≈ 29.4 µM) | > 40 | – | 19.1 (≈ 70.1 µM) | Did not dissolve | – |
| COc1cc2nc(-c3cccc(F)c3)nc(O)c2cc1OC | – | – | – | > 20 | – | > 20 | > 20 | > 20 | > 40 | – | > 20 | Did not dissolve | ED50 (MCF7 [6]): inactive |
| Oc1nc(-c2ccccc2F)nc2ccccc12 | > 20 | – | – | – | – | 17.5 (≈ 72.8 µM) | – | – | > 40 | – | – | Did not dissolve | EC50 (SK-MEL-2 [12]): > 20 µg/mL; EC50 (HCT-8 [13]): > 20 µg/mL; EC50 (1A9 [14]): 17.1 µg/mL (≈ 71.2 µM); EC50 (MCF7 [15]): > 20 µg/mL; EC50 (A549 [16]): > 20 µg/mL |
